Target: T1, Pol theta (1-899) (Homo sapiens, UniProt O75417)
T1 construct: Pol theta (1-899) (5 nM) in assay buffer
Assay: Pol theta ATPase activity, NADH oxidation-coupled enzymatic assay (ATPase NADH coupling: Standard Screening: hPolQ)
Type: biochemical
Settings: Pol theta (1-899) 5 nM, NADH oxidation-coupled ATPase assay; compounds of Table 3
In short: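 Rates of ATP hydrolysis taken from 60-min A340 traces of NADH oxidation via PK/LDH coupling, then fit four-parameter for IC50, Hill slope and max inhibition. Enzyme (5 nM, 1-899) and compounds preincubated 15 min before ATP 100 μM and 50-thymine ssDNA 300 nM (stock, equal volume added).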

T1 sequence (O75417 1-899): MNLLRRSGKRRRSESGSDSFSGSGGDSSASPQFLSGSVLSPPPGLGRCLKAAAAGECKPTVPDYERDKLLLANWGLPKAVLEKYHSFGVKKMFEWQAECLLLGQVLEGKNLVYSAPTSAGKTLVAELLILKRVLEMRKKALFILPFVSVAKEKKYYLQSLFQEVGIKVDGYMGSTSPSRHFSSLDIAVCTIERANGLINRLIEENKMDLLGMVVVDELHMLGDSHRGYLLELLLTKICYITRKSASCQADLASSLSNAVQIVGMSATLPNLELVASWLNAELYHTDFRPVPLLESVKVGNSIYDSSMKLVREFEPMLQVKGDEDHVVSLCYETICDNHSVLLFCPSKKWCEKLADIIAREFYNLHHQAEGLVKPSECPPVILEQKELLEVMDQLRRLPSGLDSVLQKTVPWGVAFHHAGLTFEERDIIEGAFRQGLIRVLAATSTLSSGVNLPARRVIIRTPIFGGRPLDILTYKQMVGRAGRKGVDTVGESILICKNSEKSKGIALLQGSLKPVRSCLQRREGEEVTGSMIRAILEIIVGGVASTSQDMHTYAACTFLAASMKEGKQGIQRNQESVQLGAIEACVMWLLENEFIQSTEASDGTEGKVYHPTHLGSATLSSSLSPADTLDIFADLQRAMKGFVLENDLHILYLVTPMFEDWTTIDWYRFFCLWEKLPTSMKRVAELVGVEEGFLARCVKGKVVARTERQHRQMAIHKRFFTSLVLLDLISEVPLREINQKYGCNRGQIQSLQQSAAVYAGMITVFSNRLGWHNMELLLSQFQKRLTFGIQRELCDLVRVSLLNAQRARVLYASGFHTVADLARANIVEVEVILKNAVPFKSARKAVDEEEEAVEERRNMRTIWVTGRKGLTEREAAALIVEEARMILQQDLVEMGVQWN

Compared with `COc1nnc(NC(=O)c2cnc(C)cc2-c2cccc(OCC#N)c2)s1` [Example 466, 4-[3-(cyanomethoxy)phenyl]-N-(5-methoxy-1,3,4-thiadiazol-2-yl)-6-methylpyridine-3-carboxamide], `COc1nnc(NC(=O)c2cnc(C)cc2-c2cccc(C)c2)s1` [Example 361, N-(5-methoxy-1,3,4-thiadiazol-2-yl)-6-methyl-4-(3-methylphenyl) pyridine-3-carboxamide] is lower in IC50: 1000 to 10000 nM for the first, 500 to 1000 nM for the second.

`COc1nnc(NC(=O)c2cc(N(C)C)ncc2-c2cc(Cl)ncc2OC)s1` [Example 311, 2′-chloro-6-(dimethylamino)-5′-methoxy-N-(5-methoxy-1,3,4-thiadiazol-2-yl)-[3,4′-bipyridine]-4-carboxamide] and `COc1nnc(NC(=O)c2cc(OC(F)F)ncc2-c2cc(Cl)ncc2OC)s1` [Example 265, 2′-chloro-6-(difluoromethoxy)-5′-methoxy-N-(5-methoxy-1,3,4-thiadiazol-2-yl)-[3,4′-bipyridine]-4-carboxamide] cannot be ordered by IC50: 200 to 500 nM for the first, no more than 200 nM for the second.

`COc1nnc(NC(=O)c2cnc(C)cc2-c2ccc(OC(F)(F)F)cc2)s1` [Example 376, N-(5-methoxy-1,3,4-thiadiazol-2-yl)-6-methyl-4-[4-(trifluoromethoxy)phenyl]pyridine-3-carboxamide] and `COc1nnc(NC(=O)c2cnc(C)cc2-c2ccc(C(=O)N(C)C)cc2)s1` [Example 369, 4-[4-(dimethylcarbamoyl)phenyl]-N-(5-methoxy-1,3,4-thiadiazol-2-yl)-6-methylpyridine-3-carboxamide] fall in the same range of IC50: 1000 to 10000 nM for the first, 1000 to 10000 nM for the second.

`COc1nnc(NC(=O)c2cnc(C)cc2-c2cccc(NS(C)(=O)=O)c2)s1` [Example 400, 4-(3-methanesulfonamidophenyl)-N-(5-methoxy-1,3,4-thiadiazol-2-yl)-6-methylpyridine-3-carboxamide] and `COc1nnc(NC(=O)c2cnc(C)cc2-c2ccc3ncncc3c2)s1` [Example 470, N-(5-methoxy-1,3,4-thiadiazol-2-yl)-6-methyl-4-(quinazolin-6-yl)pyridine-3-carboxamide] fall in the same range of IC50: 1000 to 10000 nM for the first, 1000 to 10000 nM for the second.

`COc1ccc(F)c(-c2cc(C)ncc2C(=O)Nc2nnc(OC)s2)c1` [Example 447, 4-(2-fluoro-5-methoxyphenyl)-N-(5-methoxy-1,3,4-thiadiazol-2-yl)-6-methylpyridine-3-carboxamide] and `COc1nnc(NC(=O)c2cnc(C)cc2-c2cccc3[nH]ncc23)s1` [Example 335, 4-(1H-indazol-4-yl)-N-(5-methoxy-1,3,4-thiadiazol-2-yl)-6-methylnicotinamide] fall in the same range of IC50: 500 to 1000 nM for the first, 500 to 1000 nM for the second.

First: COc1nnc(NC(=O)c2ccnc(C#N)c2-c2cc(Cl)ncc2OC)s1 [Example 289, 2′-chloro-2-cyano-5′-methoxy-N-(5-methoxy-1,3,4-thiadiazol-2-yl)-[3,4′-bipyridine]-4-carboxamide]
Second: COc1nnc(NC(=O)c2ccc(C)cc2-c2cc(Cl)ncc2OC)s1 [Example 279, 2-(2-chloro-5-methoxypyridin-4-yl)-N-(5-methoxy-1,3,4-thiadiazol-2-yl)-4-methylbenzamide]
The IC50 of the first is higher: 1000 to 10000 nM for the first, no more than 200 nM for the second.

`COc1nnc(NC(=O)c2cnc(C)cc2-c2cc(Cl)c([S@+]([O-])C3CC3)cc2OC)s1` (single isomer, unassigned) [Example 321] and `COc1nnc(NC(=O)c2cnc(C)cc2-c2cnnc(C)c2)s1` [Example 440, N-(5-methoxy-1,3,4-thiadiazol-2-yl)-6-methyl-4-(6-methylpyridazin-4-yl)nicotinamide] fall in the same range of IC50: 1000 to 10000 nM for the first, 1000 to 10000 nM for the second.

`COc1cnc(C)c(F)c1-c1cc(C)ncc1C(=O)Nc1nnc(O[C@H]2CC[C@H](CO)CC2)s1` [Example 314, 3′-fluoro-N-(5-(((1r,4r)-4-(hydroxymethyl)cyclohexyl)oxy)-1,3,4-thiadiazol-2-yl)-5′-methoxy-2′,6-dimethyl-[4,4′-bipyridine]-3-carboxamide] and `COc1cnc(C)c(F)c1-c1cc(C)ncc1C(=O)Nc1nnc(O[C@H]2CCC[C@@H](O)C2)s1` (single isomer, unassigned) [Example 236] cannot be ordered by IC50: no more than 200 nM for the first, no more than 200 nM for the second.

Compared with `COc1nnc(NC(=O)c2cnc(C)cc2-c2ccc(CN(C)C)nc2)s1` [Example 474, 6-((dimethylamino)methyl)-N-(5-methoxy-1,3,4-thiadiazol-2-yl)-6′-methyl-[3,4′-bipyridine]-3′-carboxamide], `COc1nnc(NC(=O)c2cnc(C)cc2-c2ccc3nccnc3c2)s1` [Example 341, N-(5-methoxy-1,3,4-thiadiazol-2-yl)-6-methyl-4-(quinoxalin-6-yl)pyridine-3-carboxamide] is lower in IC50: 1000 to 10000 nM for the first, 500 to 1000 nM for the second.

Same assay, conditions: Table 4; Pol theta (1-899) 5 nM, ATP, dT50 ssDNA

First: COc1nnc(NC(=O)c2cnc(C)cc2-c2c(OC)cnc(Cl)c2F)s1 [Example 47, 2′-chloro-3′-fluoro-5′-methoxy-N-(5-methoxy-1,3,4-thiadiazol-2-yl)-6-methyl-(4,4′-bipyridine)-3-carboxamide]
Second: COc1nnc(NC(=O)c2cnc(C)cc2-c2cc([C@@H](C)O)ncc2OC)s1 (single isomer, unassigned) [Example 69]
The IC50 of the first is lower: no more than 200 nM for the first, 1000 to 10000 nM for the second. The first is the more potent here.

`COc1nnc(NC(=O)c2cnc(C)cc2-c2c(Cl)cccc2OC(F)F)s1` [Example 55, 4-(2-chloro-6-(difluoromethoxy)phenyl)-N-(5-methoxy-1,3,4-thiadiazol-2-yl)-6-methylnicotinamide] and `COc1nnc(NC(=O)c2cnc(C)cc2-c2c(F)cccc2Cl)s1` [Example 38, 4-(2-chloro-6-fluorophenyl)-N-(5-methoxy-1,3,4-thiadiazol-2-yl)-6-methylnicotinamide] cannot be ordered by IC50: 200 to 500 nM for the first, no more than 200 nM for the second.

`COc1cnc(Cl)cc1-c1cc(C)ncc1C(=O)Nc1nnc(O[C@H]2CC[C@@H](O)C2)s1` (single isomer, unassigned) [Example 58] and `COc1cnc(Cl)cc1-c1cc(C)ncc1C(=O)Nc1nnc(O[C@H]2C[C@@H](O)C2)s1` [Example 15, 2′-chloro-N-(5-((1s,3s)-3-hydroxycyclobutoxy)-1,3,4-thiadiazol-2-yl)-5′-methoxy-6-methyl-(4,4′-bipyridine)-3-carboxamide] cannot be ordered by IC50: no more than 200 nM for the first, no more than 200 nM for the second.

First: COc1nnc(NC(=O)c2c[n+]([O-])c(C)cc2-c2cc(Cl)ncc2OC)s1 [Example 65, 2′-chloro-5′-methoxy-5-((5-methoxy-1,3,4-thiadiazol-2-yl)carbamoyl)-2-methyl-(4,4′-bipyridine) 1-oxide]
Second: CCc1cnc(Cl)cc1-c1cc(C)ncc1C(=O)Nc1nnc(OC)s1 [Example 49, 2′-chloro-5′-ethyl-N-(5-methoxy-1,3,4-thiadiazol-2-yl)-6-methyl-(4,4′-bipyridine)-3-carboxamide]
The IC50 of the first is higher: 500 to 1000 nM for the first, no more than 200 nM for the second. The second is the more potent here.

First: COc1nnc(NC(=O)c2cnc(C)cc2-c2cc(Cl)ncc2CO)s1 [Example 72, 2′-chloro-5′-(hydroxymethyl)-N-(5-methoxy-1,3,4-thiadiazol-2-yl)-6-methyl-(4,4′-bipyridine)-3-carboxamide]
Second: COc1cnc(Cl)cc1-c1cc(C)ncc1C(=O)Nc1nnc(OC2(C)COC2)s1 [Example 24, 2′-chloro-5′-methoxy-6-methyl-N-(5-((3-methyloxetan-3-yl)oxy)-1,3,4-thiadiazol-2-yl)-(4,4′-bipyridine)-3-carboxamide]
The IC50 of the first is higher: 500 to 1000 nM for the first, no more than 200 nM for the second. The second is the more potent here.

`COc1nnc(NC(=O)c2cnc(C)cc2-c2ccccc2OC(F)F)s1` [Example 36, 4-(2-(difluoromethoxy)phenyl)-N-(5-methoxy-1,3,4-thiadiazol-2-yl)-6-methylnicotinamide] and `COc1cnc(Cl)cc1-c1cc(C)ncc1C(=O)Nc1nnc(O[C@H]2CCO[C@H]2C)s1` (single isomer, unassigned) [Example 76, 2′-chloro-5′-methoxy-6-methyl-N-(5-(((2r,3r)-2-methyltetrahydrofuran-3-yl)oxy)-1,3,4-thiadiazol-2-yl)-(4,4′-bipyridine)-3-carboxamide] cannot be ordered by IC50: no more than 200 nM for the first, no more than 200 nM for the second.

Same assay, conditions: Table 5; Pol theta (1-899) 5 nM, ATP, dT50 ssDNA

`COc1cnc(Cl)cc1-c1cc(C)ncc1C(=O)Nc1nnc(O[C@@H]2CCO[C@H]2C)s1` (single isomer, unassigned) [Example 116] and `COc1cnc(Cl)cc1-c1cc(C)ncc1C(=O)Nc1nnc(O[C@@H]2CC[C@H]2O)s1` (single isomer, unassigned) [Example 118] cannot be ordered by IC50: no more than 200 nM for the first, no more than 200 nM for the second.

`COc1cnc(Cl)c(F)c1-c1cc(C)ncc1C(=O)Nc1nnc(O[C@H]2C[C@@H](O)C2)s1` [Example 129, 2′-chloro-3′-fluoro-N-(5-((1s,3s)-3-hydroxycyclobutoxy)-1,3,4-thiadiazol-2-yl)-5′-methoxy-6-methyl-(4,4′-bipyridine)-3-carboxamide] and `Cc1cc(-c2cc(Cl)ncc2OC(F)F)c(C(=O)Nc2nnc(O[C@H]3CC[C@@](C)(O)CC3)s2)cn1` (single isomer, unassigned) [Example 220, 2′-chloro-5′-(difluoromethoxy)-N-(5-(((1s,4s)-4-hydroxy-4-methylcyclohexyl)oxy)-1,3,4-thiadiazol-2-yl)-6-methyl-(4,4′-bipyridine)-3-carboxamide] cannot be ordered by IC50: no more than 200 nM for the first, no more than 200 nM for the second.

Compared with `COc1nnc(NC(=O)c2cnc(C3CCCC3)cc2-c2cc(Cl)ncc2OC)s1` [Example 143, 2′-chloro-6-cyclopentyl-5′-methoxy-N-(5-methoxy-1,3,4-thiadiazol-2-yl)-(4,4′-bipyridine)-3-carboxamide], `COc1nnc(NC(=O)c2cnc(C)cc2-c2cnn3c2OCC3)s1` [Example 126, 4-(2,3-dihydropyrazolo(5,1-b)oxazol-7-yl)-N-(5-methoxy-1,3,4-thiadiazol-2-yl)-6-methylnicotinamide] is higher in IC50: 200 to 500 nM for the first, 1000 to 10000 nM for the second. The first is the more potent here.

Same assay, conditions: Table 5; values given as bound; Pol theta (1-899) 5 nM, ATP, dT50 ssDNA

Molecule `COc1nnc(NC(=O)c2cn(C)nc2-c2cc(Cl)ncc2OC)s1` [Example 110, 3-(2-chloro-5-methoxypyridin-4-yl)-N-(5-methoxy-1,3,4-thiadiazol-2-yl)-1-methyl-1H-pyrazole-4-carboxamide] has an IC50 greater than 10000 nM.
